How the values were obtained:
PC-3 [1] = test: Cytotoxicity against human PC-3 cells assessed as reduction in cell viability measured after 72 hrs by MTT assay; assay type: functional, cell-based; details: PC-3, 72 h
[2] = Cytotoxicity against human WI-38 cells assessed as reduction in cell viability measured after 72 hrs by MTT assay; assay type: toxicity, cell-based
PC-3 [3] = test: Cytotoxicity against human PC-3 cells assessed as cell growth inhibition at 20 uM measured after 72 hrs by MTT assay relative to control; assay type: functional; details: read-out: GI
PC-3 [4] = test: Cytotoxicity against human PC-3 cells assessed as cell growth inhibition at 5 uM measured after 72 hrs by MTT assay relative to control; assay type: functional; details: read-out: GI
PC-3 [5] = test: Synergistic anticancer activity against human PC-3 cells assessed as cell growth inhibition at 20 uM measured after 72 hrs in presence of 0.00001 uM of topotecan by MTT assay relative to control; assay type: functional; details: read-out: GI
PC-3 [6] = test: Synergistic anticancer activity against human PC-3 cells assessed as cell growth inhibition at 20 uM measured after 72 hrs in presence of 0.001 uM of topotecan by MTT assay relative to control; assay type: functional; details: read-out: GI
PC-3 [7] = test: Synergistic anticancer activity against human PC-3 cells assessed as cell growth inhibition at 20 uM measured after 72 hrs in presence of 0.1 uM of topotecan by MTT assay relative to control; assay type: functional; details: read-out: GI
PC-3 [8] = test: Synergistic anticancer activity against human PC-3 cells assessed as cell growth inhibition at 20 uM measured after 72 hrs in presence of 10 uM of topotecan by MTT assay relative to control; assay type: functional; details: read-out: GI
PC-3 [9] = test: Synergistic anticancer activity against human PC-3 cells assessed as cell growth inhibition at 10 uM measured after 72 hrs in presence of 0.0001 uM of topotecan by MTT assay relative to control; assay type: functional; details: read-out: GI
PC-3 [10] = test: Synergistic anticancer activity against human PC-3 cells assessed as cell growth inhibition at 10 uM measured after 72 hrs in presence of 0.001 uM of topotecan by MTT assay relative to control; assay type: functional; details: read-out: GI
PC-3 [11] = test: Synergistic anticancer activity against human PC-3 cells assessed as cell growth inhibition at 10 uM measured after 72 hrs in presence of 0.01 uM of topotecan by MTT assay relative to control; assay type: functional; details: read-out: GI
PC-3 [12] = test: Synergistic anticancer activity against human PC-3 cells assessed as cell growth inhibition at 10 uM measured after 72 hrs in presence of 0.1 uM of topotecan by MTT assay relative to control; assay type: functional; details: read-out: GI
PC-3 [13] = test: Synergistic anticancer activity against human PC-3 cells assessed as cell growth inhibition at 10 uM measured after 72 hrs in presence of 1 uM of topotecan by MTT assay relative to control; assay type: functional; details: read-out: GI
PC-3 [14] = test: Synergistic anticancer activity against human PC-3 cells assessed as cell growth inhibition at 5 uM measured after 72 hrs in presence of 0.00001 uM of topotecan by MTT assay relative to control; assay type: functional; details: read-out: GI
PC-3 [15] = test: Synergistic anticancer activity against human PC-3 cells assessed as cell growth inhibition at 5 uM measured after 72 hrs in presence of 0.0001 uM of topotecan by MTT assay relative to control; assay type: functional; details: read-out: GI
PC-3 [16] = test: Synergistic anticancer activity against human PC-3 cells assessed as cell growth inhibition at 5 uM measured after 72 hrs in presence of 0.001 uM of topotecan by MTT assay relative to control; assay type: functional; details: read-out: GI
PC-3 [17] = test: Synergistic anticancer activity against human PC-3 cells assessed as cell growth inhibition at 5 uM measured after 72 hrs in presence of 1 uM of topotecan by MTT assay relative to control; assay type: functional; details: read-out: GI
[18] = Cytotoxicity against mouse RCaP cells assessed as cell growth inhibition at 5 uM measured after 72 hrs by MTT assay relative to control; assay type: functional; details: read-out: GI
[19] = Synergistic anticancer activity against mouse RCaP cells assessed as cell growth inhibition at 20 uM measured after 72 hrs in presence of 0.00001 uM of topotecan by MTT assay relative to control; assay type: functional; details: read-out: GI
[20] = Synergistic anticancer activity against mouse RCaP cells assessed as cell growth inhibition at 20 uM measured after 72 hrs in presence of 0.0001 uM of topotecan by MTT assay relative to control; assay type: functional; details: read-out: GI
[21] = Synergistic anticancer activity against mouse RCaP cells assessed as cell growth inhibition at 20 uM measured after 72 hrs in presence of 0.001 uM of topotecan by MTT assay relative to control; assay type: functional; details: read-out: GI
[22] = Synergistic anticancer activity against mouse RCaP cells assessed as cell growth inhibition at 20 uM measured after 72 hrs in presence of 0.1 uM of topotecan by MTT assay relative to control; assay type: functional; details: read-out: GI
[23] = Synergistic anticancer activity against mouse RCaP cells assessed as cell growth inhibition at 20 uM measured after 72 hrs in presence of 1 uM of topotecan by MTT assay relative to control; assay type: functional; details: read-out: GI
[24] = Synergistic anticancer activity against mouse RCaP cells assessed as cell growth inhibition at 20 uM measured after 72 hrs in presence of 10 uM of topotecan by MTT assay relative to control; assay type: functional; details: read-out: GI
[25] = Synergistic anticancer activity against mouse RCaP cells assessed as cell growth inhibition at 10 uM measured after 72 hrs in presence of 0.00001 uM of topotecan by MTT assay relative to control; assay type: functional; details: read-out: GI
[26] = Synergistic anticancer activity against mouse RCaP cells assessed as cell growth inhibition at 10 uM measured after 72 hrs in presence of 0.0001 uM of topotecan by MTT assay relative to control; assay type: functional; details: read-out: GI
[27] = Synergistic anticancer activity against mouse RCaP cells assessed as cell growth inhibition at 10 uM measured after 72 hrs in presence of 0.1 uM of topotecan by MTT assay relative to control; assay type: functional; details: read-out: GI
[28] = Synergistic anticancer activity against mouse RCaP cells assessed as cell growth inhibition at 5 uM measured after 72 hrs in presence of 0.001 uM of topotecan by MTT assay relative to control; assay type: functional; details: read-out: GI
[29] = Synergistic anticancer activity against mouse RCaP cells assessed as cell growth inhibition at 5 uM measured after 72 hrs in presence of 0.01 uM of topotecan by MTT assay relative to control; assay type: functional; details: read-out: GI
[30] = Synergistic anticancer activity against mouse RCaP cells assessed as cell growth inhibition at 5 uM measured after 72 hrs in presence of 1 uM of topotecan by MTT assay relative to control; assay type: functional; details: read-out: GI
[31] = Synergistic anticancer activity against mouse RCaP cells assessed as cell growth inhibition at 5 uM measured after 72 hrs in presence of 10 uM of topotecan by MTT assay relative to control; assay type: functional; details: read-out: GI
[32] = Synergistic anticancer activity against mouse RCaP cells assessed as cell growth inhibition at […] measured after 72 hrs in presence of 0.00001 uM of topotecan by MTT assay relative to control; assay type: functional; details: dose 2.5 µM, read-out: GI
[33] = Synergistic anticancer activity against mouse RCaP cells assessed as cell growth inhibition at […] measured after 72 hrs in presence of 0.0001 uM of topotecan by MTT assay relative to control; assay type: functional; details: dose 2.5 µM, read-out: GI
[34] = Synergistic anticancer activity against mouse RCaP cells assessed as cell growth inhibition at […] measured after 72 hrs in presence of 0.1 uM of topotecan by MTT assay relative to control; assay type: functional; details: dose 2.5 µM, read-out: GI
[35] = Synergistic anticancer activity against mouse RCaP cells assessed as cell growth inhibition at […] measured after 72 hrs in presence of 1 uM of topotecan by MTT assay relative to control; assay type: functional; details: dose 2.5 µM, read-out: GI

Row | Compound | IC50 (PC-3 [1]) [µM] | IC50 at 72 h [2] [µM] | inhibition of growth at 20 µM (PC-3 [3]) [%] | inhibition of growth at 5 µM (PC-3 [4]) [%] | inhibition of growth at 20 µM (PC-3 [5]) [%] | inhibition of growth at 20 µM (PC-3 [6]) [%] | inhibition of growth at 20 µM (PC-3 [7]) [%] | inhibition of growth at 20 µM (PC-3 [8]) [%] | inhibition of growth at 10 µM (PC-3 [9]) [%] | inhibition of growth at 10 µM (PC-3 [10]) [%] | inhibition of growth at 10 µM (PC-3 [11]) [%] | inhibition of growth at 10 µM (PC-3 [12]) [%] | inhibition of growth at 10 µM (PC-3 [13]) [%] | inhibition of growth at 5 µM (PC-3 [14]) [%] | inhibition of growth at 5 µM (PC-3 [15]) [%] | inhibition of growth at 5 µM (PC-3 [16]) [%] | inhibition of growth at 5 µM (PC-3 [17]) [%] | inhibition of growth at 5 µM [18] [%] | inhibition of growth at 20 µM [19] [%] | inhibition of growth at 20 µM [20] [%] | other results
1 | COc1ccccc1[C@H]1[C@H](C(=O)O)[C@H](c2ccccc2OC)[C@H]1C(=O)OCC1c2ccccc2-c2ccccc21 | 10.5 | 23 | 89.1 | 7.5 | 99.3 | 99.8 | 99.8 | 92.3 | 59.3 | 60.9 | 64.8 | 66.8 | 82.2 | 24.6 | 27.5 | 28.7 | 81 | 8.67 | 98.1 | 97.5 | inhibition of growth at 20 µM [21]: 98.5%; inhibition of growth at 20 µM [22]: 99.9%; inhibition of growth at 20 µM [23]: 99.1%; inhibition of growth at 20 µM [24]: 99.3%; inhibition of growth at 10 µM [25]: 76.5%; inhibition of growth at 10 µM [26]: 75.1%; inhibition of growth at 10 µM [27]: 94.3%; inhibition of growth at 5 µM [28]: 32.3%; inhibition of growth at 5 µM [29]: 31.8%; inhibition of growth at 5 µM [30]: 99%; inhibition of growth at 5 µM [31]: 99.4%; inhibition of growth at […] [32]: 0.97%; inhibition of growth at […] [33]: -4.8%; inhibition of growth at […] [34]: 86.6%; inhibition of growth at […] [35]: 98.1%
2 | O=C(O)[C@H]1[C@H](c2ccccc2)[C@H](C(=O)Oc2cc(-c3ccc4c(c3)OCO4)ccc2-c2ccccc2)[C@H]1c1ccccc1 | 9.89 | 19.5 | 96.1 | 28.4 | 98.1 | 98.4 | 98.5 | 98.2 | 78.5 | 81.1 | 83 | 82.4 | 92 | 28.5 | 30.9 | 29.1 | 72.2 | 22.5 | 97.6 | 96.7 | inhibition of growth at 20 µM [21]: 97.8%; inhibition of growth at 20 µM [22]: 98.9%; inhibition of growth at 20 µM [23]: 98.8%; inhibition of growth at 20 µM [24]: 99.2%; inhibition of growth at 10 µM [25]: 68.4%; inhibition of growth at 10 µM [26]: 68%; inhibition of growth at 10 µM [27]: 97.2%; inhibition of growth at 5 µM [28]: 28.3%; inhibition of growth at 5 µM [29]: 34.4%; inhibition of growth at 5 µM [30]: 97.9%; inhibition of growth at 5 µM [31]: 99.6%; inhibition of growth at […] [32]: 5.43%; inhibition of growth at […] [33]: 10.1%; inhibition of growth at […] [34]: 82%; inhibition of growth at […] [35]: 98.6%
3 | COc1ccccc1[C@H]1[C@H](C(=O)O)[C@H](c2ccccc2OC)[C@H]1C(=O)Oc1cc(-c2ccc3c(c2)OCO3)ccc1-c1ccccc1 | 6.52 | 10.8 | 99.2 | 30.7 | 99.7 | 99.4 | 99 | 98.8 | 67.7 | 72.4 | 77.4 | 81.4 | 88.7 | 44.3 | 44.1 | 43.5 | 89.8 | 40.6 | 100 | 100 | inhibition of growth at 20 µM [21]: 100%; inhibition of growth at 20 µM [22]: 99.6%; inhibition of growth at 20 µM [23]: 100%; inhibition of growth at 20 µM [24]: 100%; inhibition of growth at 10 µM [25]: 89.5%; inhibition of growth at 10 µM [26]: 89.4%; inhibition of growth at 10 µM [27]: 89.9%; inhibition of growth at 5 µM [28]: 36.1%; inhibition of growth at 5 µM [29]: 49.6%; inhibition of growth at 5 µM [30]: 97.9%; inhibition of growth at 5 µM [31]: 99.1%; inhibition of growth at […] [32]: -1.97%; inhibition of growth at […] [33]: -3.7%; inhibition of growth at […] [34]: 89.9%; inhibition of growth at […] [35]: 98.2%

From ChEMBL document CHEMBL6109109, “Fatty acid binding protein 5 inhibitors as novel anticancer agents against metastatic castration-resistant prostate cancer” (Bioorg Med Chem, 2025)
